Reference: ChEMBL document CHEMBL4673405, “Novel Linker Variants of Antileishmanial/Antitubercular 7-Substituted 2-Nitroimidazooxazines Offer Enhanced Solubility” (ACS Med Chem Lett, 2021)
In brackets after ≈: the same amount, converted by molar mass.

How the values were obtained:
MRC5 = assay: Cytotoxicity against human MRC5 cells assessed as reduction in cell viability measured after 72 hrs by resazurin assay; assay type: ADME, cell-based; settings: MRC5, 72 h
Leishmania infantum = assay: Antileishmanial activity against Leishmania infantum MHOM/MA(BE)/67 amastigotes infected in mouse peritoneal macrophages incubated for 5 days by Giemsa staining based assay; assay type: functional, organism-based; settings: MHOM/MA(BE)/67, Peritoneal macrophage, 120 h
[1] = Aqueous solubility of the compound at pH 7 sonicated for 15 mins by HPLC analysis; settings: aqueous medium
[2] = Microsomal stability in mouse liver microsomes assessed as parent compound remaining at 1 uM measured up to 60 mins in presence of NADPH by LC-MS/MS analysis
[3] = Microsomal stability in human liver microsomes assessed as parent compound remaining at 1 uM measured up to 60 mins in presence of NADPH by LC-MS/MS analysis
Leishmania donovani [4] = assay: (§1) Antileishmanial activity against Leishmania donovani MHOM/ET/67/HU3 amastigotes infected in BALB/c mouse model of visceral leishmaniasis assessed as reduction in parasite burden in liver at 50 mg/kg, po administered once daily for 5 consecutive days starting after 7 days post-infection by microscopic analysis relative to control; assay type: functional; set-up: scale not given: the % may be the effect or the level left; settings: time 5 day
[5] = AUClast in BALB/c mouse at 1 mg/kg, iv measured up to 24 hrs by LC-MS/MS analysis; settings: in vivo
[6] = Initial plasma concentration in BALB/c mouse at 1 mg/kg, iv measured up to 24 hrs by LC-MS/MS analysis
Leishmania donovani [7] = assay: Antileishmanial activity against Leishmania donovani MHOM/ET/67/HU3 amastigotes infected in po dosed BALB/c mouse model of visceral leishmaniasis assessed as reduction in parasite burden in liver at administered once daily for 5 consecutive days starting after 7 days post-infection by microscopic analysis; assay type: functional; settings: MHOM/ET/67/HU3, po, 120 h, time 5 day
[8] = Half life in BALB/c mouse at 25 mg/kg, po measured up to 24 hrs by LC-MS/MS analysis; assay type: ADME, organism-based; settings: in vivo
[9] = Clearance in BALB/c mouse at 1 mg/kg, iv measured up to 24 hrs by LC-MS/MS analysis; settings: in vivo
[10] = Half life in BALB/c mouse at 1 mg/kg, iv measured up to 24 hrs by LC-MS/MS analysis; settings: in vivo
Leishmania donovani [11] = assay: as §1, with “spleen” for “liver”; assay type: functional; set-up: scale not given: the % may be the effect or the level left; settings: time 5 day
in vivo [12] = settings: BALB/c, mouse, po, 25 mg/kg
in vivo [13] = settings: BALB/c, mouse, po, 25 mg/kg; remark: listed apart in the source
Leishmania donovani [14] = assay: as §1, with “12.5” for “50”; assay type: functional; set-up: scale not given: the % may be the effect or the level left; settings: time 5 day
Leishmania donovani [15] = assay: as §1, with “25” for “50”; assay type: functional; set-up: scale not given: the % may be the effect or the level left; settings: time 5 day
in vivo [16] = settings: BALB/c, mouse, po, 25 mg/kg; remark: listed apart in the source
Description: AUClast in BALB/c mouse at 25 mg/kg, po measured up to 24 hrs by LC-MS/MS analysis

in vivo [17] = settings: BALB/c, mouse, po, 25 mg/kg; remark: listed apart in the source
Leishmania donovani [18] = assay: as §1, with “spleen” for “liver”, “25” for “50”; assay type: functional; set-up: scale not given: the % may be the effect or the level left; settings: time 5 day
[19] = Volume of distribution at steady state in BALB/c mouse at 1 mg/kg, iv measured up to 24 hrs by LC-MS/MS analysis; settings: in vivo

| IC50 (Leishmania infantum) | Structure (SMILES) | IC50 (MRC5) | also measured |
| --- | --- | --- | --- |
| 480 nM | CN(CC1(C)CCn2cc([N+](=O)[O-])nc2O1)c1ccc(F)cc1 (stereo not given) | ≥ 40000 nM |  |
| 130 nM | CC1(COc2ccc(Cl)cc2)CCn2cc([N+](=O)[O-])nc2O1 (stereo not given) | ≥ 40000 nM |  |
| 300 nM | CC1(COCc2ccc(OC(F)(F)F)cc2)CCn2cc([N+](=O)[O-])nc2O1 (stereo not given) | ≥ 40000 nM |  |
| 790 nM | O=C(NCc1ccc(OC(F)(F)F)cc1)N(Cc1ccc(OC(F)(F)F)cc1)C(=O)OCC1CCn2cc([N+](=O)[O-])nc2O1 (stereo not given) | ≥ 40000 nM |  |
| 2000 nM | CC1(CNS(=O)(=O)c2cccc(OC(F)(F)F)c2)CCn2cc([N+](=O)[O-])nc2O1 (stereo not given) | ≥ 40000 nM |  |
| 1300 nM | CC1(COC(=O)N(Cc2ccc(OC(F)(F)F)cc2)C(=O)NCc2ccc(OC(F)(F)F)cc2)CCn2cc([N+](=O)[O-])nc2O1 (stereo not given) | ≥ 40000 nM |  |
| 150 nM | O=[N+]([O-])c1cn2c(n1)OC(CNc1ccc(OC(F)(F)F)cc1)CC2 (stereo not given) | ≥ 40000 nM |  |
| 2000 nM | CC1(CNC(=O)Cc2ccc(OC(F)(F)F)cc2)CCn2cc([N+](=O)[O-])nc2O1 (stereo not given) | ≥ 40000 nM |  |
| 9900 nM | CC1(CNC(=O)c2ccccc2OC(F)(F)F)CCn2cc([N+](=O)[O-])nc2O1 (stereo not given) | ≥ 40000 nM |  |
| 1700 nM | CC1(CNC(=O)COc2ccc(OC(F)(F)F)cc2)CCn2cc([N+](=O)[O-])nc2O1 (stereo not given) | ≥ 40000 nM |  |
| 320 nM | CC1(COC(=O)NCc2ccc(OC(F)(F)F)cc2)CCn2cc([N+](=O)[O-])nc2O1 (stereo not given) | ≥ 40000 nM | solubility at 0.25 h [1]: 117 µg/mL (≈ 272 µM) |
| 3300 nM | O=C(NCC1CCn2cc([N+](=O)[O-])nc2O1)Nc1ccc(OC(F)(F)F)cc1 (stereo not given) | ≥ 40000 nM |  |
| 1400 nM | CC1(CNC(=O)Nc2ccc(OC(F)(F)F)cc2)CCn2cc([N+](=O)[O-])nc2O1 (stereo not given) | ≥ 40000 nM | remaining at 1 h, 1 µM [2]: 39%; remaining at 1 h, 1 µM [3]: 54%; Activity (Leishmania donovani [4]): 36%; solubility at 0.25 h [1]: 121 µg/mL (≈ 291 µM) |
| 220 nM | CN(CC1CCn2cc([N+](=O)[O-])nc2O1)c1ccc(OC(F)(F)F)cc1 (stereo not given) | ≥ 40000 nM |  |
| 1400 nM | CC1(CNC(=O)c2ccc(OC(F)(F)F)cc2)CCn2cc([N+](=O)[O-])nc2O1 (stereo not given) | ≥ 40000 nM | Activity (Leishmania donovani [4]): 71%; solubility at 0.25 h [1]: 78 µg/mL (≈ 195 µM) |
| 1800 nM | CC1(CNC(=O)NCc2ccc(OC(F)(F)F)cc2)CCn2cc([N+](=O)[O-])nc2O1 (stereo not given) | ≥ 40000 nM |  |
| 180 nM | O=C(NCc1ccc(OC(F)(F)F)cc1)OCC1CCn2cc([N+](=O)[O-])nc2O1 (stereo not given) | ≥ 40000 nM |  |
| 360 nM | CC1(COC(=O)Nc2ccc(OC(F)(F)F)cc2)CCn2cc([N+](=O)[O-])nc2O1 (stereo not given) | ≥ 40000 nM | AUC(0-t) at 24 h [5]: 2070 ng·h/mL; C0 at 24 h [6]: 800 ng/mL; ED50 (Leishmania donovani [7]): 16 mg/kg; half-life [8]: 1.7 h; clearance at 24 h [9]: 8.5 mL/min/kg; half-life at 24 h [10]: 1.3 h; Activity (Leishmania donovani [11]): 100%; Cmax at 24 h (in vivo [12]): 13500 ng/mL; Tmax at 24 h (in vivo [13]): 0.75 h; Activity (Leishmania donovani [4]): >99%; Activity (Leishmania donovani [14]): 7%; Activity (Leishmania donovani [15]): 97%; AUC(0-t) at 24 h (in vivo [16]): 57800 ng·h/mL; bioavailability at 24 h (in vivo [17]): 100%; Activity (Leishmania donovani [18]): 96%; Vd at 24 h [19]: 1.2 L/kg; solubility at 0.25 h [1]: 11 µg/mL (≈ 26.4 µM) |
